For one assay, the target named is T1, H₃ receptors (Cavia porcellus, UniProt Q9JI35).
T1 construct: The source of the H₃ receptors in this experiment was guinea pig brain; from tissue; host or cells: guinea pig brain membranes
The assay can be described thus: H3 Receptor Binding Assay. As to conditions: guinea pig brain membranes; for Ki: 3 nM [³H]R-α-methylhistamine or [³H]-N-methylhistamine, 30° for 30 min; for H3 Binding (inhibition of the specific binding of radioactive ligand): final concentration 2 µg/mL with 0.1% DMSO, not serially diluted (70% or less inhibition). How it is done: H₃ Receptor Binding Assay
The source of the H₃ receptors in this experiment was guinea pig brain. The animals used weighed 400-600 g. The tissue was homogenized using a Polytron in a solution of 50 mM Tris, pH 7.5. The final concentration of tissue in the homogenization buffer was 10% w/v. The homogenates were centrifuged at 1000 x g for 10 min. in order to remove clumps of tissue and debris. The resulting supernatants were then centrifuged at 50,000 x g for 20 min. in order to sediment the membranes, which were nest washed 3 times in homogenization buffer (50,000 x g for 20 min. each). The membranes were frozen and stored at -70°C until needed.
All compounds to be tested were dissolved in DMSO and then diluted into the binding buffer (50 mM Tris, pH 7.5) such that the final concentration was 2 µg/mL with 0.1% DMSO. Membranes were then added (400 µg of protein) to the reaction tubes. The reaction was started by the addition of 3 nM [³H]R-α-methylhistamine (8.8 Ci/mmol) or [³H]-N-methylhistamine (80 Ci/mmol) and incubated at 30° for 30 min. Bound ligand was separated from unbound ligand by filtration, and the amount of radioactive ligand bound to the membranes was quantitiated by liquid scintillation spectrometry.

Assay [1] addresses H₃ receptors in rat brain (Rattus norvegicus, UniProt Q9QYN8). The note with it: complete agonists of the H₃ receptors; cited from earlier work.

T1 sequence (Q9JI35 whole entry): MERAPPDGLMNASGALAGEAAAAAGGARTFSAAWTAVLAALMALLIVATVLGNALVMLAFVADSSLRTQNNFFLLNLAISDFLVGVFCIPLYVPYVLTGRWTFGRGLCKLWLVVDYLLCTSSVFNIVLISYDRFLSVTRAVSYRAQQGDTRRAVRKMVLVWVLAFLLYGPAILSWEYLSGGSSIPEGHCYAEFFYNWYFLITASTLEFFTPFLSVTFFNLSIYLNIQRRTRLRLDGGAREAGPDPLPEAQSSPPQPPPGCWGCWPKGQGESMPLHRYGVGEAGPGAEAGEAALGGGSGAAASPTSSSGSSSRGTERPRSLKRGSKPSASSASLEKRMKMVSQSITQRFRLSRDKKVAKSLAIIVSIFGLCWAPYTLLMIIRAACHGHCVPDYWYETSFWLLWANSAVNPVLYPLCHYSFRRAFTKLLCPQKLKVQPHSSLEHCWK
Sequence of H₃ receptors in rat brain (Q9QYN8 whole entry): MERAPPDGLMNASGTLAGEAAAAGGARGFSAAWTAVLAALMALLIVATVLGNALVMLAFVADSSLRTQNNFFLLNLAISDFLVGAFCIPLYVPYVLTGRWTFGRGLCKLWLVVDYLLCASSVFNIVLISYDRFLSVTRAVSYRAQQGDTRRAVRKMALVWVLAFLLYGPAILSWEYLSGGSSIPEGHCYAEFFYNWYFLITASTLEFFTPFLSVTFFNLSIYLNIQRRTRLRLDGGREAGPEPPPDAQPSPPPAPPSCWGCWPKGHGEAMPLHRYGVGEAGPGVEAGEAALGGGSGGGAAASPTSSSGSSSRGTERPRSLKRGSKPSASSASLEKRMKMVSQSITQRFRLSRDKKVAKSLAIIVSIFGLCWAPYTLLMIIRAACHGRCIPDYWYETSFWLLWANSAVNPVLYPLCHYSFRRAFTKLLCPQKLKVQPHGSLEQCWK

Regarding `c1nc(CN2CCNCC2)c[nH]1`, at H₃ receptors, the Ki worked out at 4.7 nM.
For the compound `CC1CN(Cc2c[nH]cn2)C(C)CN1` (stereo not drawn), the “H3 Binding (inhibition of the specific binding of radioactive ligand)” value on H₃ receptors is on record as 6%.
For the compound `C[C@@H]1CN(Cc2c[nH]cn2)C[C@H](C)N1`, the “H3 Binding (inhibition of the specific binding of radioactive ligand)” value at H₃ receptors came out at 24%.
As for `c1nc(CN2CCCNCC2)c[nH]1`, affinity at H₃ receptors was put at a Ki of 87 nM.
`NCCc1c[nH]cn1` [(a*), reference compound] yielded a Ki at H₃ receptors of 14 nM. This Ki lies about 6.2-fold lower than the previous one.
As for `NCCc1c[nH]cn1` [histamine], the “maximal inhibition of release” value in assay [1] was “approximately 60%”.

The Ki is the equilibrium dissociation constant of an inhibitor or competing ligand from its target. High values mean a looser hold on the target, low ones a stronger hold on the target.

The values above are taken from patent EP0618905B1, “IMIDAZOLYL-ALKYL-PIPERAZINE AND -DIAZEPINE DERIVATIVES AS HISTAMINE H3 AGONISTS/ANTAGONISTS” (SCHERING CORPORATION, priority 1991, dated 1993).
